Experimental data taken from PubChem BioAssay (NCI).
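Briefly, cells in 96-well plates were exposed to five compound concentrations for 48 h, and endpoints were estimated by linear interpolation. GI50 is the concentration that inhibits growth by half. The concentration for full growth arrest is given as TGI.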

Assays:
Assay in all cases: inhibition of tumour cell growth, NCI panel, 48 h
MOLT-4 leukemia = test system: MOLT-4 leukemia
HCC-2998 colon = test system: HCC-2998 colon
SK-OV-3 ovarian = test system: SK-OV-3 ovarian
SF-295 CNS = test system: SF-295 CNS
RPMI-8226 leukemia = test system: RPMI-8226 leukemia
IGROV1 ovarian = test system: IGROV1 ovarian
NCI-H522 lung = test system: NCI-H522 lung
SF-539 CNS = test system: SF-539 CNS
DU-145 prostate = test system: DU-145 prostate
BT-549 breast = test system: BT-549 breast

SMILES | TGI (MOLT-4 leukemia) [µM] | TGI (HCC-2998 colon) [µM] | TGI (SK-OV-3 ovarian) [µM] | TGI (SF-295 CNS) [µM] | TGI (RPMI-8226 leukemia) [µM] | TGI (IGROV1 ovarian) [µM] | TGI (NCI-H522 lung) [µM] | TGI (SF-539 CNS) [µM] | GI50 (MOLT-4 leukemia) [µM] | GI50 (HCC-2998 colon) [µM] | GI50 (SF-295 CNS) [µM] | GI50 (DU-145 prostate) [µM] | TGI (DU-145 prostate) [µM] | GI50 (RPMI-8226 leukemia) [µM] | GI50 (IGROV1 ovarian) [µM] | GI50 (NCI-H522 lung) [µM] | GI50 (BT-549 breast) [µM] | TGI (BT-549 breast) [µM] | GI50 (SF-539 CNS) [µM] | GI50 (SK-OV-3 ovarian) [µM]
CC1(O)CCC2(C#N)CCC1C2O (stereo not given) | > 100 | > 100 | > 100 | > 100 | 54.6 | > 100 | > 100 | > 100 |  |  |  |  |  |  |  |  |  |  |  | 
N#CC1C2CCC3(CC2CCN1C(=O)c1ccccc1)OCCO3 (stereo not given) | > 100 | > 100 | > 100 | > 100 | > 100 | > 100 |  | > 100 |  |  |  |  |  |  |  |  |  |  |  | 
COc1ccc2c(c1)/C(=N/OC(C)=O)c1c-2c(=O)[nH]c2ccccc12 | 24.6 | 13.5 |  | 48 | 21.8 | 11.8 | 31.4 | 46.4 | 4.28 | 3.29 | 18.1 | 10.6 | 25.3 | 5.12 | 1.52 | 13.5 | 7.99 | 24.1 | 16.9 | 
Cc1cc2cn3c4cccnc4[nH]c(=O)c3c2cc1C | 4.53 | 2.92 | 3.2 | 3.26 | 4.66 |  |  | 3.12 | 2.25 | 1.5 | 1.51 | 1.83 | 3.28 | 1.89 |  |  | 12.2 | 29.4 | 1.73 | 1.8
Cc1c2c(cc3c(=O)ccn(CCN(C)C)c13)c(=O)ccn2CCN(C)C | 13.6 | 20.3 | 37.5 | 25.4 |  | 37 | 21.1 | 29.7 |  |  |  |  |  |  |  |  |  |  |  | 
Clc1ccc(Nc2ccnc(NCCCNc3ccnc4cc(Cl)ccc34)n2)cc1 |  |  | 2.94 | 2.96 |  |  | 3.68 | 3.19 |  |  | 1.55 | 1.86 | 3.35 |  |  | 1.95 | 1.74 | 3.67 | 1.67 | 1.57
C1=Nc2ccccc2C=Nc2ccccc2C=Nc2ccccc2C=Nc2ccccc21.[Cl-].[Pt+2] | 49.3 |  | 65.9 |  | 35.6 | 49.5 | 34.8 | 54.1 | 14.1 |  |  |  |  | 5.63 | 18.8 | 15.8 |  |  | 23.1 | 24.4
CCSc1nnc(-c2ccc3ccccc3c2O)n1-c1ccc(Cl)cc1 |  | > 100 | > 100 | > 100 | > 100 | > 100 | > 100 | > 100 |  | > 100 | 4.24 | 13.1 | > 100 | 4.83 | 4.42 | 5.15 | > 100 | > 100 | > 100 | 69.5
COc1cc2c(cn1)[nH]c1ccccc12 | > 100 | > 100 | > 100 | > 100 | > 100 | > 100 | > 100 | > 100 |  |  |  |  |  |  |  |  |  |  |  | 
COc1cc(Nc2nc3ccc(C(F)(F)F)cc3nc2-c2ccccc2)cc(OC)c1OC | > 100 | 25.9 | > 100 | 11.6 |  | > 100 | 93.6 | > 100 |  |  |  |  |  |  |  |  |  |  |  | 
N#CC1CC2(C(=O)C1=O)c1ccccc1-c1ccccc12 (stereo not given) | > 100 | > 100 | > 100 | > 100 |  | > 100 | > 100 |  |  |  |  |  |  |  |  |  |  |  |  | 
Cc1ccc(Sc2sc(-c3ccccc3)nc2[P+](c2ccccc2)(c2ccccc2)c2ccccc2)cc1 | 1.59 | 1.63 | 0.863 | 0.722 | 0.523 |  | 1.25 | 1.47 | 0.363 | 0.453 | 0.243 | 0.379 | 1.37 | 0.178 |  | 0.306 | 0.32 | 1.18 | 0.375 | 0.282
COc1ccc2c(c1)/C(=C/c1cc(OC)c(OC)c(OC)c1)C(=O)N2C | 7.56 | > 56.1 | 12.5 | > 100 | 4.43 | 5.31 | 6.39 | 5.92 | 1.89 | 9.39 | 2.78 |  |  | 1.59 | 1.9 | 2.24 | 2.84 | > 30.4 | 2.21 | 3.2
O=C1CS/C(=N\S(=O)(=O)c2ccc(N3N=C4c5ccccc5CC4C3c3ccc(Cl)cc3)cc2)N1c1ccccc1 (stereo not given) | 40.7 |  | 95.2 | 98.7 | 88.7 | > 100 | > 100 | > 100 | 17.2 |  | 35.8 | 33.9 | > 100 | 26.4 | 37.8 | 36.7 | 35.6 | > 100 | 60.2 | 31.4
CSc1ncnc2c1CCN2 |  | > 100 | > 100 | > 100 |  | > 100 |  |  |  | > 100 | > 100 |  |  |  | > 100 | > 100 |  |  |  | > 100
C1COCCOCCOCCOCCO1.CC(=O)[CH-]C(C)=O.CC(=O)[CH-]C(C)=O.CC(=O)[CH-]C(C)=O.[V] | 41.4 | 40.1 | 33 | 22 | 50 | 22.5 | 39 | 13.8 | 20.6 | 19.6 | 7.9 |  |  | 20.5 | 4.79 | 16.9 |  |  | 3.75 | 17.6
O=C(NCc1ccncc1)C1COc2cc(-c3cc(=O)c4ccccc4o3)ccc2O1 (stereo not given) | > 100 | > 100 | > 100 | > 100 |  | > 100 | > 100 | > 100 |  |  |  |  |  |  |  |  |  |  |  | 
